Laboratory results published in article PMC8373216, “Development and Preclinical Evaluation of New Inhaled Lipoglycopeptides for the Treatment of Persistent Pulmonary Methicillin-Resistant Staphylococcus aureus Infections” (Antimicrobial Agents and Chemotherapy, 2021).
≈ marks a conversion by molar mass, not a printed value. Like-named read-outs stand apart in the source and are kept apart here.

What was measured:
Staphylococcus hominis = assay: Expanded panel broth microdilution MIC; format: cell-based
Streptococcus anginosus = assay: Expanded panel broth microdilution MIC/MBC; format: cell-based; details: for MIC: Streptococcus anginosus, read-out: MIC
[1] = system: Staphylococcus epidermidis; assay: Expanded panel broth microdilution MIC/MBC; format: cell-based; details: for MIC: Staphylococcus epidermidis
S. aureus = assay: Expanded panel broth microdilution MIC/MBC; details: for MIC: Staphylococcus aureus
Streptococcus mitis = assay: Expanded panel broth microdilution MIC/MBC; format: cell-based; details: for MIC: Streptococcus mitis
Enterococcus faecalis = assay: Expanded panel broth microdilution MIC/MBC; format: cell-based
[2] = system: Streptococcus dysgalactiae; assay: Expanded panel broth microdilution MIC/MBC; format: cell-based; details: for MIC: Streptococcus dysgalactiae
Cutibacterium acnes = assay: Expanded panel broth microdilution MIC; format: cell-based
Streptococcus pyogenes = assay: Expanded panel broth microdilution MIC/MBC; format: cell-based; details: for MIC: Streptococcus pyogenes
[3] = system: MRSA ATCC BAA 1556 (USA300) biofilm; assay: MRSA biofilm killing, MBEC assay system, TSB with 1% human plasma; details: MBEC
Streptococcus pneumoniae = assay: Expanded panel broth microdilution MIC/MBC; format: cell-based
MSSA ATCC 29213 = assay: In-house broth microdilution MIC screening; format: cell-based; details: Staphylococcus aureus; broth microdilution; read-out: MIC Value, MSSA ATCC 29213
Eggerthella lenta = assay: Expanded panel broth microdilution MIC; format: cell-based

CCCCCCCCCCNC(=O)CNC1(C)CC(OC2C(Oc3c4cc5cc3Oc3ccc(cc3Cl)C(O)C3NC(=O)C(NC(=O)C5NC(=O)C(CC(N)=O)NC(=O)C(NC(=O)C(CC(C)C)NC)C(O)c5ccc(c(Cl)c5)O4)c4ccc(O)c(c4)-c4c(O)cc(O)cc4C(C(=O)O)NC3=O)OC(CO)C(O)C2O)OC(C)C1O (centres unmarked) [RV94]
MIC (Staphylococcus hominis; ATCC27844, S. hominis ATCC 27844, read-out: MIC): 0.03 µg/mL (≈ 18.2 nM) | MIC (Staphylococcus hominis; S. hominis, 1 isolate, read-out: MIC): 0.03 µg/mL (≈ 18.2 nM) | MIC:MBC (Streptococcus anginosus; S. anginosus AGS): >8 | MIC (Streptococcus anginosus; ATCC33397, S. anginosus (AGS) ATCC 33397): 0.015 µg/mL (≈ 9.11 nM) | MIC (Streptococcus anginosus; S. anginosus AGS, 1 isolate): 0.015 µg/mL (≈ 9.11 nM) | MIC:MBC ([1]; S. epidermidis MRSE, MBC on one organism): 1 | MIC ([1]; ATCC49134, S. epidermidis ATCC 49134, MSSE, read-out: MIC): 0.015 µg/mL (≈ 9.11 nM) | MIC ([1]; MRSE, S. epidermidis MMX 762, MRSE, read-out: MIC): 0.03 µg/mL (≈ 18.2 nM) | MIC ([1]; MRSE, S. epidermidis MMX 5145, MRSE, read-out: MIC): 0.015 µg/mL (≈ 9.11 nM) | MIC ([1]; MRSE, S. epidermidis MRSE, 2 isolates, read-out: MIC (median)): 0.03 µg/mL (≈ 18.2 nM) | MIC ([1]; S. epidermidis MSSE, 1 isolate, read-out: MIC): 0.015 µg/mL (≈ 9.11 nM) | MIC:MBC (S. aureus; S. aureus MRSA, MBC median of n = 5): 1 | MIC:MBC (S. aureus; S. aureus MSSA, MBC on one organism): 8 | MIC:MBC (S. aureus; S. aureus VISA, MBC median of n = 2): 2 | MIC:MBC (S. aureus; S. aureus hVISA, MBC on one organism): 8 | MIC (S. aureus; ATCC13709 / MSSA, S. aureus ATCC 13709, MSSA): 0.03 µg/mL (≈ 18.2 nM) | MIC (S. aureus; ATCC29213 / MSSA, S. aureus ATCC 29213, MSSA): 0.015 µg/mL (≈ 9.11 nM) | MIC (S. aureus; ATCC43300 / MRSA, S. aureus ATCC 43300, MRSA): 0.015 µg/mL (≈ 9.11 nM) | MIC (S. aureus; ATCCBAA1556|MRSA|USA300, S. aureus ATCC BAA-1556, MRSA, USA300 (expanded panel)): 0.03 µg/mL (≈ 18.2 nM) | MIC (S. aureus; ATCCBAA1756|MRSA|NRS384|USA300, S. aureus NRS 384, ATCC BAA-1756, MRSA, USA300): 0.015 µg/mL (≈ 9.11 nM) | MIC (S. aureus; MRSA / NRS123 / USA400, S. aureus NRS123, MRSA, USA400): 0.015 µg/mL (≈ 9.11 nM) | MIC (S. aureus; MRSA / NRS725 / USA300, S. aureus NRS725, MRSA, USA300): 0.015 µg/mL (≈ 9.11 nM) | MIC (S. aureus; MRSA / USA300, S. aureus MMX 3982, MRSA, USA300): 0.015 µg/mL (≈ 9.11 nM) | MIC (S. aureus; MRSA, S. aureus MMX 7899, MRSA): 0.015 µg/mL (≈ 9.11 nM) | MIC (S. aureus; MRSA, S. aureus MMX 7900, MRSA): 0.015 µg/mL (≈ 9.11 nM) | MIC (S. aureus; MRSA, S. aureus MMX 7901, MRSA): 0.015 µg/mL (≈ 9.11 nM) | MIC (S. aureus; MRSA, S. aureus MMX 7902, MRSA): 0.03 µg/mL (≈ 18.2 nM) | MIC (S. aureus; MRSA, S. aureus MMX 7903, MRSA): 0.015 µg/mL (≈ 9.11 nM) | MIC (S. aureus; MRSA, read-out: MIC (median), S. aureus MRSA, 12 isolates): 0.015 µg/mL (≈ 9.11 nM) | MIC (S. aureus; MSSA, S. aureus MMX 7907, MSSA): 0.03 µg/mL (≈ 18.2 nM) | MIC (S. aureus; MSSA, S. aureus MMX 7908, MSSA): 0.015 µg/mL (≈ 9.11 nM) | MIC (S. aureus; MSSA, read-out: MIC (median), S. aureus MSSA, 4 isolates): 0.023 µg/mL (≈ 14 nM) | MIC (S. aureus; NRS1 / VISA, S. aureus NRS1, VISA, Mu50): 0.25 µg/mL (≈ 152 nM) | MIC (S. aureus; NRS2, S. aureus NRS2, hVISA;Mu3): 0.03 µg/mL (≈ 18.2 nM) | MIC (S. aureus; NRS4 / VISA, S. aureus NRS4, VISA): 0.06 µg/mL (≈ 36.4 nM) | MIC (S. aureus; NRS13 / VISA, S. aureus NRS13, VISA): 0.12 µg/mL (≈ 72.9 nM) | MIC (S. aureus; NRS22 / VISA, S. aureus NRS22, VISA): 0.12 µg/mL (≈ 72.9 nM) | MIC (S. aureus; NRS23, S. aureus NRS23, hVISA): 0.12 µg/mL (≈ 72.9 nM) | MIC (S. aureus; NRS52 / VISA, S. aureus NRS52, VISA): 0.06 µg/mL (≈ 36.4 nM) | MIC (S. aureus; VISA, read-out: MIC (median), S. aureus VISA, 5 isolates): 0.12 µg/mL (≈ 72.9 nM) | MIC (S. aureus; VRSA, read-out: MIC (median), S. aureus VRSA, 12 isolates (JMI Laboratories)): 4 µg/mL (≈ 2430 nM) | MIC (S. aureus; read-out: MIC (median), S. aureus hVISA, 2 isolates): 0.08 µg/mL (≈ 48.6 nM) | MIC, fold activity reduction compared to RV40 (S. aureus; VISA): 2 fold | MIC, fold enhancement in comparison to vancomycin (S. aureus; VISA): 30 fold | MIC, fold activity reduction compared to RV40 (S. aureus; hVISA): 3 fold | MIC, fold enhancement in comparison to vancomycin (S. aureus; hVISA): 18 fold | MIC, fold enhancement compared to telavancin (S. aureus; hVISA and VISA (both strains)): 2 fold | MIC:MBC (Streptococcus mitis; S. mitis MGS, MBC on one organism): 1 | MIC (Streptococcus mitis; ATCC49456, S. mitis (MGS) ATCC 49456, read-out: MIC): 8 ng/mL (≈ 4.86 nM) | MIC (Streptococcus mitis; S. mitis (MGS) MMX 5798, read-out: MIC): 8 ng/mL (≈ 4.86 nM) | MIC (Streptococcus mitis; S. mitis MGS, 2 isolates, read-out: MIC (median)): 8 ng/mL (≈ 4.86 nM) | MIC:MBC (Enterococcus faecalis; E. faecalis VSE, MBC on one organism): >8 | MIC:MBC (Enterococcus faecalis; E. faecalis VanA VRE): >8 | MIC (Enterococcus faecalis; E. faecalis VanA VRE, 1 isolate): 0.03 µg/mL (≈ 18.2 nM) | MIC (Enterococcus faecalis; Enterococcus faecalis, ATCC29212, E. faecalis ATCC 29212, VSE, read-out: MIC): 0.03 µg/mL (≈ 18.2 nM) | MIC (Enterococcus faecalis; Enterococcus faecalis, E. faecalis MMX 1086, VanA VRE, read-out: MIC): 0.03 µg/mL (≈ 18.2 nM) | MIC (Enterococcus faecalis; Enterococcus faecalis, E. faecalis MMX 4176, VSE, read-out: MIC): 0.03 µg/mL (≈ 18.2 nM) | MIC (Enterococcus faecalis; Enterococcus faecalis, E. faecalis VSE, 2 isolates, read-out: MIC (median)): 0.03 µg/mL (≈ 18.2 nM) | MIC:MBC ([2]; S. dysgalactiae, MBC on one organism): 4 | MIC ([2]; S. dysgalactiae MMX 5121, read-out: MIC): 8 ng/mL (≈ 4.86 nM) | MIC ([2]; S. dysgalactiae MMX 5123, read-out: MIC): 30 ng/mL (≈ 18.2 nM) | MIC ([2]; S. dysgalactiae MMX 5124, read-out: MIC): 8 ng/mL (≈ 4.86 nM) | MIC ([2]; S. dysgalactiae, 3 isolates, read-out: MIC (median)): 8 ng/mL (≈ 4.86 nM) | MIC (Cutibacterium acnes; ATCC6919, P. acnes ATCC 6919, read-out: MIC): 8 ng/mL (≈ 4.86 nM) | MIC (Cutibacterium acnes; ATCC11827, P. acnes ATCC 11827, read-out: MIC): 8 ng/mL (≈ 4.86 nM) | MIC (Cutibacterium acnes; C. acnes, 2 isolates, read-out: MIC (median)): 8 ng/mL (≈ 4.86 nM) | MIC:MBC (Streptococcus pyogenes; S. pyogenes ermR): 1 | MIC (Streptococcus pyogenes; ATCC19615, S. pyogenes ATCC 19615, read-out: MIC): 15 ng/mL (≈ 9.11 nM) | MIC (Streptococcus pyogenes; S. pyogenes MMX 946, ermR, read-out: MIC): 8 ng/mL (≈ 4.86 nM) | MIC (Streptococcus pyogenes; S. pyogenes MMX 8778, read-out: MIC): 8 ng/mL (≈ 4.86 nM) | MIC (Streptococcus pyogenes; S. pyogenes ermR, 1 isolate, read-out: MIC): 8 ng/mL (≈ 4.86 nM) | MIC (Streptococcus pyogenes; S. pyogenes, 2 isolates, read-out: MIC (median)): 12 ng/mL (≈ 7.29 nM) | Biofilm activity, fold more potent than vancomycin at the same dose ([3]; 16 μg/ml): 2 fold | Concentrations with statistically significant reduction versus control biofilm ([3]; two-way ANOVA, Bonferroni): ≥ 2 µg/mL | MIC:MBC (Streptococcus pneumoniae; S. pneumoniae PISP, MBC on one organism): 4 | MIC (Streptococcus pneumoniae; S. pneumoniae PRSP, 1 isolate): 8 ng/mL (≈ 4.86 nM) | MIC (Streptococcus pneumoniae; Streptococcus pneumoniae, ATCC49619, S. pneumoniae ATCC 49619, PISP, read-out: MIC): 8 ng/mL (≈ 4.86 nM) | MIC (Streptococcus pneumoniae; Streptococcus pneumoniae, S. pneumoniae MMX 432, PRSP, read-out: MIC): 8 ng/mL (≈ 4.86 nM) | MIC (Streptococcus pneumoniae; Streptococcus pneumoniae, S. pneumoniae MMX 747, PISP, read-out: MIC): 4 ng/mL (≈ 2.43 nM) | MIC (Streptococcus pneumoniae; Streptococcus pneumoniae, S. pneumoniae PISP, 2 isolates, read-out: MIC (median)): 6 ng/mL (≈ 3.64 nM) | MIC (MSSA ATCC 29213): 0.031 µg/mL (≈ 18.8 nM) | MIC (Eggerthella lenta; ATCC43055, E. lenta ATCC 43055, read-out: MIC): 8 ng/mL (≈ 4.86 nM) | MIC (Eggerthella lenta; E. lenta, 1 isolate, read-out: MIC): 8 ng/mL (≈ 4.86 nM)
